Entries after “also recorded” stand apart in the source; their conditions may differ. Peptide text beside a SMILES is read from it. * marks the point of attachment. Cbz = O=C(OCc1ccccc1)*; CH2F = FC*
Experiments:
[1] = test system: BACE; conditions: variety of cell types, including primary neurons; cited from earlier work
[2] = test system: Aβ1-total; conditions: CHO cells, 6 hr treatment; cited from earlier work
[3] = test system: GGA3; assay: Full length GGA3 in primary cortical neurons treated with STS, Western blot; assay type: cell-based; conditions: primary cortical neurons (PCN), STS for 12 hr
Experimental: FIG. 5b: rat brain samples from the experiment described in FIG. 7. […] FIG. 5c: H4 and primary cortical neurons (PCN) were treated with STS for 12 hr.

[4] = test system: BACE mRNA; assay: Northern blot analysis of BACE mRNA; assay type: cell-based, human; conditions: H4-APP751 cells, 6 hr of STS treatment
Experimental: Total RNA was extracted using TRIZOL (Invitrogen). Northern blot analysis was performed as previously described (Koh et al., 2001). Human cDNA of BACE was labeled with […] (PerkinElmer, Norwalk Conn.) using random hexanucleotide primers (Prime-a-gene labeling system; Promega Madison Wis.).

[5] = test system: GGA3; assay: GGA3 cleavage during apoptosis in H4 cells, Western blot with anti-GGA3 antibody; assay type: cell-based, human; conditions: for cleavage of full length GGA3: H4 cells, STS time course
Experimental: H4 cells were treated with staurosporine (STS) during time course experiments.
(§1) H4 human neuroglioma cells expressing APP751 (H4-APP751) and APP-SWE (H4-APPSWE) were grown in DMEM containing 10% FBS, 200 μg/mL G418, 250 μg/mL zeocin, 2 mM L-glutamine, 100 U/ml penicillin, 100 μg/mL streptomycin. For the induction of apoptosis, we used staurosporine or etoposide (Calbiochem). For time-course experiments, cells were seeded at a density of 2×10^6 cells per 100 mm dish and treated with STS (1 μM) or etoposide (100 μg/mL). In order to inhibit caspase activation a sister plate of cells was pretreated with zVAD (100 μM, Calbiochem) for 1 hr before STS treatment. At different time points (0, 3, 6, 9, 12, and 24 hr), the cells were scraped, centrifuged, and then lysed in buffer containing 1% NP40. Western blot analysis was performed as previously described (Tesco et al., 2003). Densitometry analysis was performed on a Macintosh computer using the public domain NIH Image program (developed at the U.S. National Institutes of Health and available on the Internet at rsb.info.nih.gov/nih-image/) or using a Versadoc Imager and QuantityOne software (BioRad).

[6] = test system: TACE and APP; assay: Cycloheximide degradation time-course, TACE and APP; assay type: cell-based, human; conditions: H4-APP751 cells, STS+CHX vs CHX (40 μg/ml) only
Experimental: (§2) H4-APP751 cells were treated with CHX (40 μg/ml) only or STS (1 μM)+CHX during a 30 hr time-course. Lysates from each time point were immunoblotted with the specific antibodies, anti-BACE, anti-TACE, and the anti-APP antibody […].

[7] = test system: BACE; assay: Cycloheximide degradation time-course, BACE; assay type: cell-based, human; conditions: H4-APP751 cells, STS+CHX vs CHX (40 μg/ml) only
Experimental: as §2

[8] = test system: APP-C99; assay: APP-C99 levels during apoptosis, Western blot with WO2 antibody; assay type: cell-based, human; conditions: H4-APP751 cells, apoptosis induced by STS
Source text: (§3) Gervais and colleagues (Gervais et al., 1999) proposed that caspase-mediated cleavage of APP at APPD720 was responsible for increased Aβ generation associated with apoptosis. […] The Aβ ELISA measured Aβ1-total using biotinylated 3D6, which specifically recognizes the aspartate in position 1 of Aβ, as a reporter antibody. […] Here, we investigated whether apoptosis-mediated increases in Aβ levels may be due to enhanced cleavage of APP by BACE, the protease responsible for β-secretase cleavage of APP (Vassar et al., 1999). For this purpose, we tested whether apoptosis/caspase activation leads to increased levels of APP-C99, the C-terminal fragment generated by β-secretase cleavage of APP. […]
(§4) H4 human neuroglioma cells expressing APP751 (H4-APP751) and APP-SWE (H4-APPSWE) were grown in DMEM containing 10% FBS, 200 μg/mL G418, 250 μg/mL zeocin, 2 mM L-glutamine, 100 U/ml penicillin, 100 μg/mL streptomycin. […] Densitometry analysis was performed on a Macintosh computer using the public domain NIH Image program (developed at the U.S. National Institutes of Health and available on the Internet at rsb.info.nih.gov/nih-image/) or using a Versadoc Imager and QuantityOne software (BioRad).

[9] = test system: caspase 3; assay: Caspase 3 activation, Western blot with anti-caspase 3 active fragment antibody; assay type: cell-based, human; conditions: H4-APP751 cells, STS treatment
Source text: as §3, §4

[10] = test system: BACE; assay: Induction of apoptosis, Western blot of BACE protein levels; assay type: cell-based, human; conditions: H4-APP751 cells
Experimental: as §1

[11] = test system: ischemic and excitotoxic neuronal damage; conditions: intracerebroventricular injection before ischemia and immediately after reperfusion; cited from earlier work
[12] = test system: BACE; conditions: caspase inhibition; cited from earlier work
[13] = test system: BACE; assay: Co-transfection of GGA3DN with myc-tagged BACE in H4-APP751 cells, BACE levels; assay type: cell-based, human
Source text: To address this possibility we engineered a HA-tagged GGA3 N-terminal fragment 1-313 mimicking the N-terminal caspase-derived fragment generated by cleavage at D313 (GGA3DN). […] During apoptosis, however, caspase-mediated cleavage of GGA3 results not only in the production of GGA3DN but also the degradation of GGA3.

[14] = test system: Aβ40; assay: Secreted Aβ40 in conditioned media, sandwich ELISA; assay type: cell-based, human; conditions: H4-APP751 cells expressing GGA3DN
Experimental: Secreted Aβ40 was measured in the conditioned media using an Aβ40-specific sandwich ELISA (BioSource International, Camarillo, Calif.). Aβ concentration was normalized against the concentration of protein in the cell lysates.
H4 cells stably expressing wild-type APP-751 or APP containing the Swedish FAD mutation (APPSwe) were transfected with 200 nM siGGA3 (ID #36847, Ambion, Austin Tex.) or a 19 bp scrambled sequence was used as negative control for siRNA (Silencer Negative control #1 siRNA, Ambion) using oligofectamine following manufacturer's instructions (Invitrogen). 72 hr later, GGA3 levels were determined by WB analysis with anti-GGA3 antibody (Transduction Laboratories). At the same time point, a sister plate of the same cells was co-transfected with myc-tagged BACE plasmid and siGGA3 or siNeg. After 48 hr the media was replaced. Cells and media were collected after 72 hr following the co-transfection.

[15] = test system: GGA3; assay: In vitro translation and recombinant caspase 3 cleavage assay; assay type: biochemical, human; conditions: recombinant caspase 3
Experimental: The HA-GGA3 pcDNA4 plasmid was a generous gift from Dr. Waguri. GGA3 was in vitro translated (IVT) in the presence of [^35S]-labeled methionine using TNT Quick Coupled Transcription/Translation Systems as indicated by the manufacturer (Promega, Madison Wis.). 5 μL of IVT reaction were incubated with or without 200 ng of recombinant caspase 3 (Pharmingen, San Diego, Calif.) in caspase reaction buffer (sucrose 20%, NaCl 100 mM, HEPES (pH 7.4) 20 mM, CHAPS 0.1%, DTT 10 mM, EDTA 1 mM) at 37° for 2 hr. The reactions were separated by SDS-page (4-12% Bis-tricine gel with MES running buffer, Invitrogen Carlsbad, Calif.). The gel was fixed, dried and exposed to a phosphorimager screen. The images were acquired with a FX phosphorimager (Bio-Rad, Hercules Calif.). GGA3 in vitro translation was also performed in the presence of cold methionine. Then, 5 μL of IVT reaction were incubated with or without 200 ng of recombinant caspase 3 overnight at 37°. The reactions were separated by SDS-page. In order to better separate the bands generated by caspase 3 cleavage we used 12% Bis-tricine gel and MOPS running buffer (Invitrogen). Then, the proteins were transferred to PVDF membrane and WB analysis with anti-GGA3 antibody was performed.

For `Cl.N` [NH4Cl], the “accumulation of endogenous and ectopically expressed BACE” value [1] is listed as “lead to accumulation”.

In the case of `CN[C@@H]1C[C@H]2O[C@@](C)([C@@H]1OC)n1c3ccccc3c3c4c(c5c6ccccc6n2c5c31)C(=O)NC4` [STS, staurosporine], the “Aβ1-total production compared to untreated cells” value [2] is listed as “significantly increased”, the “full length GGA3” value [3] is listed as “decrease in full length GGA3” and the “BACE mRNA levels” value [4] is listed as “virtually undetectable”. The “cleavage of full length GGA3” value [5] was “cleaved into two major fragments”, the “cleavage of full length GGA3” value ([5]; listed as staurosporine) was “cleaved in two major fragments” and the “degradation of TACE and APP” value [6] was “unchanged”. For the same molecule, the “degradation of BACE” value [7] was “degradation of BACE was decreased”, the “levels of APP-C99” value [8] was “increased levels of C99” and the “earliest time of caspase 3 activation” value [9] was 6 h. The “increase in BACE protein levels” value ([10]; 12 hr of STS treatment) was ~6 fold and the “increase in BACE protein levels” value ([10]; 24 hr of STS treatment) was ~9 fold.

In the case of `CCN(CC)CCCC(C)Nc1ccnc2cc(Cl)ccc12` (centres unmarked) [chloroquine], the “accumulation of endogenous and ectopically expressed BACE” value [1] is given as “lead to accumulation”.

With `COc1cc([C@@H]2c3cc4c(cc3[C@@H](O[C@@H]3O[C@@H]5CO[C@@H](C)O[C@H]5[C@H](O)[C@H]3O)[C@H]3COC(=O)[C@H]23)OCO4)cc(OC)c1O` [etoposide] the BACE protein levels ([10]; apoptosis induced by etoposide) was “increased BACE protein levels”.

In the case of `COC(=O)C[C@H](NC(=O)[C@H](C)NC(=O)[C@@H](NC(=O)OCc1ccccc1)C(C)C)C(=O)CF` [z-VAD.FMK] (Cbz-Val-Ala-Asp(OMe)-CH2F), the “ischemic and excitotoxic neuronal damage” value [11] is given as “significantly reduces”.

In the case of `COC(=O)CC[C@H](NC(=O)[C@H](CC(=O)OC)NC(=O)OCc1ccccc1)C(=O)N[C@H](C(=O)N[C@@H](CC(=O)OC)C(=O)CF)C(C)C` [zDEVD.FMK], the “ischemic and excitotoxic neuronal damage” value [11] is given as “significantly reduces”.

In the case of `CC(NC(=O)C(NC(=O)OCc1ccccc1)C(C)C)C(=O)NC(CC(=O)O)C(=O)CF` (stereo not drawn) [zVAD] (Cbz-Val-Ala-Asp-CH2F; configuration not given here), the “cleavage of GGA3 during apoptosis” value ([5]; apoptotic H4 cells, caspase inhibition) is listed as “inhibited; also recorded: prevented”, the “BACE accumulation during STS or etoposide treatment” value ([10]; caspase inhibition) is listed as “prevented BACE accumulation” and the “increase in Aβ production during apoptosis” value [12] is listed as “prevent”. The “stabilization of BACE during apoptosis” value [12] was “prevent the stabilization of BACE”.

B1: GGA3DN: HA-tagged GGA3 N-terminal fragment 1-313 mimicking the N-terminal caspase-derived fragment generated by cleavage at D313 (protein, UniProt Q9NZ52 1-313, looked up, fragment)
chain: MAEAEGESLESWLNKATNPSNRQEDWEYIIGFCDQINKELEGPQIAVRLLAHKIQSPQEWEALQALTVLEACMKNCGRRFHNEVGKFRFLNELIKVVSPKYLGDRVSEKVKTKVIELLYSWTMALPEEAKIKDAYHMLKRQGIVQSDPPIPVDRTLIPSPPPRPKNPVFDDEEKSKLLAKLLKSKNPDDLQEANKLIKSMVKEDEARIQKVTKRLHTLEEVNNNVRLLSEMLLHYSQEDSSDGDRELMKELFDQCENKRRTLFKLASETEDNDNSLGDILQASDNLSRVINSYKTIIEGQVINGEVATLTLPD
modifications: HA tag
notes: HA-tagged GGA3 N-terminal fragment 1-313 mimicking the N-terminal caspase-derived fragment generated by cleavage at D313
With B1 the “BACE levels compared to vector alone or GGA3” value [13] was “BACE levels were increased” and the “levels of secreted Aβ40” value [14] was “the increase was not statistically significant”.

B2: recombinant caspase 3: Recombinant caspase 3 purchased from Pharmingen (protein)
chain: SGISLDNSYKMDYPEMGLCIIINNKNFHKSTGMTSRSGTDVDAANLRETFRNLKYEVRNKNDLTREEIVELMRDVSKEDHSKRSSFVCVLLSHGEEGIIFGTNGPVDLKKITNFFRGDRCRSLTGKPKLFIIQACRGTELDCGIETDSGVDDDMACHKIPVEADFLYAYSTAPGYYSWRNSKDGSWFIQSLCAMLKQYADKLEFMHILTRVNRKVATEFESFSFDATFHAKKQIPCIVSMLTKELYFYH
With B2 the “cleavage of in vitro translated GGA3 (cold methionine), Western blot” value [15] was “three major fragments”.

— patent US8273543B2, “Regulation of BACE degradation” (The General Hospital Corporation, priority 2006, dated 2012)
